In patent US20100249116A1 (priority 2007, published 2010):
Read-outs that look alike come from different tables or passages of the source.

Assays:
[1] = system: acute intoxication of male Wistar rats with ethylene glycol (EG); conditions: rat, in vivo
[2] = in vivo; conditions: male, Wistar, rat, sc

SMILES | LD50 (toxicity parameter of EG) ([1]; male, Wistar, sc) | K - Coefficient of efficiency (ratio of LD50 for treated animals to LD50 for non-treated animals) [1] | KG - Coefficient of guaranteed defense (ratio of LD10 for treated animals to LD90 for non-treated animals) [1] | LD10 (toxicity parameter of EG) ([1]; sc) | LD16 (toxicity parameter of EG) ([1]; sc) | LD84 (toxicity parameter of EG) ([1]; sc) | LD90 (toxicity parameter of EG) ([1]; sc) | LD10 (toxicity parameter of EG) ([1]; male, Wistar, sc) | LD16 (toxicity parameter of EG) ([1]; male, Wistar, sc) | LD84 (toxicity parameter of EG) ([1]; male, Wistar, sc) | LD90 (toxicity parameter of EG) ([1]; male, Wistar, sc) | LD50 [2]
Cc1cn[nH]c1 [4MP, 4-methylpyrazole] | 13000 mg/kg | 3.71 | 2.04 | 10600 mg/kg | 11000 mg/kg | 15200 mg/kg | 16100 mg/kg | – | – | – | – | –
OCCO [EG, Ethylene Glycol] | – | – | – | – | – | – | – | 2220 mg/kg | 2490 mg/kg | 4530 mg/kg | 5200 mg/kg | 3500 mg/kg
